Test results as given in patent publication US8921108B2, “Differentiated human liver cell cultures and their use in bioartificial liver systems” (Academisch Ziekenhuis Bij de Universiteit van Amsterdam, priority 2009, dated 2014).
Marks after values point to notes of the source that are not given here.

Assays:
Format in all cases: cell-based, human
HepaRG cells [1] = assay: Urea production of HepaRG monolayer cultures
Experimental: For testing, the cells are seeded in 6-well and 24-well culture plates (Corning) in HepaRG media with different FBS batches or other differences in medium composition. After a 2 weeks proliferation phase, 2% of DMSO will be added to half of the cultures. After another 2 weeks of culturing, the confluence and morphology of the cultures will be assessed microscopically. Furthermore the +DMSO and −DMSO cell cultures in the 24-well plates will be tested for biochemical activity, i.e. urea production, ammonia elimination and protein content. […] Medium samples are taken after 1 hr from the culture wells, as a reference, and after 24 hours. At the end of the test period the cells are washed three times using PBS and stored at −20° C. for protein determination. From the changes in concentration at t=1 hr and 24 hr of urea and ammonia an activity per hour and per mg protein/well is calculated.
(§1) Urea: Urea concentrations of test medium samples are determined using the blood urea nitrogen test of Sigma Chemical Co according to the instructions of the manufacturer.
(§2) The HepaRG cells are cultured as indicated above in 24 well in presence or absence of 1 mM CG during the last 5 days. Next the cells are tested as indicated above in presence or absence of CG during 24 hours. To determine the conversion of ammonia into urea, the ^15N urea enrichment (single and double labeled) is measured in the test samples using mass-spectrometry. Similarly, HepG2 and cBAL111 cells were tested for their response to CG.

HepaRG cells [2] = assay: 15N urea enrichment (conversion of ammonia into urea) in HepaRG monolayer cultures; conditions: for 15N urea enrichment: 1 mM CG in preincubation and in testmedium (++)
Experimental: For testing, the cells are seeded in 6-well and 24-well culture plates (Corning) in HepaRG media with different FBS batches or other differences in medium composition. After a 2 weeks proliferation phase, 2% of DMSO will be added to half of the cultures. After another 2 weeks of culturing, the confluence and morphology of the cultures will be assessed microscopically. Furthermore the +DMSO and −DMSO cell cultures in the 24-well plates will be tested for biochemical activity, i.e. urea production, ammonia elimination and protein content. The cultured cells are washed twice using phosphate buffered saline (PBS, NBPI International) and then incubated with test medium consisting of HepaRG culture medium supplemented with 1.5 mM ^15NH4Cl (Sigma), 2.75 mM D-galactose (Sigma), 2 mM ornithine hydrochloride (Sigma) and 2 mM L-lactate (Sigma). Medium samples are taken after 1 hr from the culture wells, as a reference, and after 24 hours. At the end of the test period the cells are washed three times using PBS and stored at −20° C. for protein determination. From the changes in concentration at t=1 hr and 24 hr of urea and ammonia an activity per hour and per mg protein/well is calculated. Quality of the cell-loaded bioreactors, measured by hepatocyte function at the start of the treatment, will be compared with values of primary hepatocytes that have been tested extensively in vitro in the past.
^15N Urea: Single and Double labelled urea is measured in the test medium samples using mass-spectrometry.
as §2

HepaRG cells [3] = assay: RT-PCR mRNA levels of hepatic genes in HepaRG monolayer cultures; conditions: CG treatment
Experimental: The HepaRG cells cultured in the 6-well plates are lysed and the RNA is isolated using the RNeasy kit (Qiagen). Next, real-time reverse transcriptase-polymerase chain reactions (RT-PCR) are performed to quantify mRNA levels of hepatic genes as well as 18S ribosomal RNA levels by RT-PCR.
First-strand cDNA is generated using a combination of 40 pmol of gene-specific RT-primers (see Table 1) and 134 units of Superscript III (Invitrogen) and 1 μg RNA in a total volume of 25 μl at 50° C. for one hour followed by a 15 min incubation at 70° C. The resulting gene-specific RT reaction mixtures are column purified using Qiaquick PCR Purification Kit (Qiagen).
Real-time PCR is performed using 1 μl of cDNA and LightCycler FastStart DNA Master SYBR® Green 1 reagent (Roche). PCR primers are depicted in the Table 3. The thermal cycling profile of the touchdown PCR is as follows: 94° C. for 10 min, followed by 40 cycles of 94° C. for 1 s, primer annealing at 68° C. for 7 s with a 0.5° C./cycle decrease until 63° C., and extension for 40 s at 72° C. PCR specificity is verified by melting curve analysis and agarose gel electrophoresis. The mRNA quantification is carried out by using the LinRegPCR programme (Ramakers et al.^17). For each sample the mRNA starting level is normalised for the 18S rRNA starting level. To correct for variations between RT-PCR runs, the mRNA starting levels of liver specific genes of NKNT-3 cells are additionally standardized for average mRNA starting levels of two liver samples that are simultaneously subjected to RT-PCR.

HepG2 cells = assay: Urea production of HepG2 cells in monolayer, response to CG
Experimental: as §1, §2

cBAL111 cells = assay: Urea production of cBAL111 cells in monolayer, response to CG
Experimental: as §1, §2

HepaRG cells [4] = assay: RT-PCR mRNA levels of hepatic genes in HepaRG cells from AMC-BAL bioreactor
[5] = 1 mM CG in preincubation and in testmedium (++)
[6] = 1 mM CG only during preincubation (+−)
[7] = Bioreactor −DMSO +CG versus Monolayer + DMSO − CG
[8] = Bioreactor −DMSO +CG versus Monolayer − DMSO − CG
[9] = HepaRG in AMC-BAL bioreactor, 13 days, −DMSO, 1 mM CG

NC(=O)N[C@@H](CCC(=O)O)C(=O)O [CG, carbamoyl glutamate]
instantaneous effect of CG on urea production (HepaRG cells [1]): negligible
Urea production (HepaRG cells [1]; HepaRG + DMSO, 1 mM CG in preincubation and in testmedium (++)): 13.7 ± 4.4 nmol/h/mg protein
Urea production (HepaRG cells [1]; HepaRG + DMSO, 1 mM CG only during preincubation (+−)): 11.0 ± 5.3 nmol/h/mg protein
Urea production (HepaRG cells [1]; HepaRG + DMSO, 1 mM CG only during test (−+)): 4.9 ± 4.2 nmol/h/mg protein
Urea production (HepaRG cells [1]; HepaRG − DMSO, 1 mM CG in preincubation and in testmedium (++)): 9.5 ± 4.2 nmol/h/mg protein
Urea production (HepaRG cells [1]; HepaRG − DMSO, 1 mM CG only during preincubation (+−)): 9.6 ± 3.3 nmol/h/mg protein
Urea production (HepaRG cells [1]; HepaRG − DMSO, 1 mM CG only during test (−+)): 5.9 ± 2.4 nmol/h/mg protein
increase of urea production by CG treatment (HepaRG cells [1]; all cell lines (HepG2, cBAL111, HepaRG), 1 mM CG): more than two-fold
time increased urea production is maintained upon withdrawal of the CG (HepaRG cells [1]; cells exposed to carbamoyl glutamate for at least 5 days): at least 24 hrs
15N urea enrichment (HepaRG cells [2]; HepaRG + DMSO): 7.8 ± 2.4 % of total urea produced
15N urea enrichment (HepaRG cells [2]; HepaRG − DMSO): 24.4 ± 4.1 % of total urea produced
increase of % of urea of the total urea produced from ammonia (HepaRG cells [2]; HepaRG −DMSO cells, CG treatment): four-fold
effect on other hepatic functions and the gene expression profiles (HepaRG cells [3]): No effect
Urea production (HepG2 cells; [5]): 2.4 ± 1.6 nmol/h/mg protein
Urea production (HepG2 cells; [6]): 2.5 ± 1.4 nmol/h/mg protein
Urea production (HepG2 cells; 1 mM CG only during test (−+)): 1.8 ± 1.1 nmol/h/mg protein
Urea production (cBAL111 cells; [5]): 9.4 ± 8.4 nmol/h/mg protein
Urea production (cBAL111 cells; [6]): 10.8 ± 6.2 nmol/h/mg protein
Urea production (cBAL111 cells; 1 mM CG only during test (−+)): 8.3 ± 8.3 nmol/h/mg protein
% improvement by bioreactor: Alb mRNA level (HepaRG cells [4]; [7]): 313* %
% improvement by bioreactor: ArgI mRNA level (HepaRG cells [4]; [7]): 460* %
% improvement by bioreactor: ArgII mRNA level (HepaRG cells [4]; [7]): 42%
% improvement by bioreactor: CPS mRNA level (HepaRG cells [4]; [7]): 4000* %
% improvement by bioreactor: CYP2B6 mRNA level (HepaRG cells [4]; [7]): 49%
% improvement by bioreactor: CYP3A4 mRNA level (HepaRG cells [4]; [7]): 148%
% improvement by bioreactor: GS mRNA level (HepaRG cells [4]; [7]): 714%
% improvement by bioreactor: HNF4 mRNA level (HepaRG cells [4]; [7]): 198* %
% improvement by bioreactor: PXR mRNA level (HepaRG cells [4]; [7]): 633%
% improvement by bioreactor: Alb mRNA level (HepaRG cells [4]; [8]): 109%
% improvement by bioreactor: ArgI mRNA level (HepaRG cells [4]; [8]): 155%
% improvement by bioreactor: ArgII mRNA level (HepaRG cells [4]; [8]): 54%
% improvement by bioreactor: CPS mRNA level (HepaRG cells [4]; [8]): 145%
% improvement by bioreactor: CYP2B6 mRNA level (HepaRG cells [4]; [8]): 863* %
% improvement by bioreactor: CYP3A4 mRNA level (HepaRG cells [4]; [8]): 1063* %
% improvement by bioreactor: GS mRNA level (HepaRG cells [4]; [8]): 300* %
% improvement by bioreactor: HNF4 mRNA level (HepaRG cells [4]; [8]): 187* %
% improvement by bioreactor: PXR mRNA level (HepaRG cells [4]; [8]): 437%
Alb mRNA level (HepaRG cells [4]; [9]): 72.1 ± 26.0 % of in vivo
ArgI mRNA level (HepaRG cells [4]; [9]): 22.9 ± 10.4 % of in vivo
ArgII mRNA level (HepaRG cells [4]; [9]): 305 ± 143 % of in vivo
CPS mRNA level (HepaRG cells [4]; [9]): 44.1 ± 32.2 % of in vivo
CYP2B6 mRNA level (HepaRG cells [4]; [9]): 30.2 ± 15.9 % of in vivo
CYP3A4 mRNA level (HepaRG cells [4]; [9]): 102 ± 49.4 % of in vivo
GS mRNA level (HepaRG cells [4]; [9]): 643 ± 395 % of in vivo
HNF4 mRNA level (HepaRG cells [4]; [9]): 386 ± 216 % of in vivo
PXR mRNA level (HepaRG cells [4]; [9]): 82.5 ± 68.9 % of in vivo
